Data reported in patent publication EP0503710A2, “Flunarizine containing anti-neoplastic compositions” (JANSSEN PHARMACEUTICA N.V., priority 1991, dated 1992).

Experiments:
[1] = system: murine sarcoma MO4 (semi-resistant cell line); experiment: Subrenal capsule implant of MO4 tumour fragments in mice, change in tumor size at day 7; assay type: in vivo; details: daily intraperitoneal day 1 until day 6
Source text: (§1) The potential of flunarizine as a potent enhancer of adriamycine (ADR) cytotoxicity in the murine sarcoma MO4 (semi-resistant cell line) "in vitro" and "in vivo" and its reversed adriamycine resistance in the P388/ADR (adriamycine resistant cell line) murine leukemia "in vivo"can be demostrated by the following procedure.
(§2) Fragments of subcutaneously grown tumours were inserted under the renal capsule in mice and their initial size measured under a microscope. At day 7, the mice were killed and the final size of the implants determined. The change in tumor size was expressed as a percentage of the initial size, the latter considered to be 100%. Daily intraperitoneal treatment with ADR alone or in combination with flunarizine which was formulated in hydroxypropyl-β-cyclodextrin was installed from day 1 until day 6. Control animals received the vehicle hydroxypropyl-ß-cyclodextrin.

[2] = system: P388/ADR (adriamycine resistant cell line) murine leukemia; experiment: Subrenal capsule implant of P388/ADR tumour fragments in mice, change in tumor size at day 7; assay type: in vivo; details: P388/ADR implants under renal capsule, monotherapy, daily intraperitoneal day 1 until day 6
Source text: as §1, §2

SMILES	effect on tumor growth ([1]; MO4 implants under renal capsule, flunarizine monotherapy in hydroxypropyl-β-cyclodextrin, size at day 7)	effect on tumor growth [2]	effect on tumor growth ([1]; MO4-tumor, adriamycine alone, dosages lower than 2.5 mg/kg)	growth reduction ([1]; MO4-tumor, adriamycine alone, half the maximal tolerated dose 2.5 mg/kg)
Fc1ccc(C(c2ccc(F)cc2)N2CCN(CC=Cc3ccccc3)CC2)cc1 [Flunarizine, 1-[bis(4-fluorophenyl)methyl]-4-(3-phenyl-2-propenyl)piperazine]	no effect	no effect	–	–
COc1cccc2c1C(=O)c1c(O)c3c(c(O)c1C2=O)C[C@@](O)(C(=O)CO)C[C@@H]3O[C@H]1C[C@H](N)[C@H](O)[C@H](C)O1 [adriamycine]	–	inactive	no effect	25%
